Laboratory results published in US20110253633A1, “CATANIONIC VESICLES, PROCESS FOR PREPARING SAME AND APPLICATIONS THEREOF” (COMMISSARIAT A L'ENERGIE ATOMIQUE ET AUX ENERGIES ALT., priority 2008, published 2011).
Like-named read-outs stand apart in the source and are kept apart here.

Columns and labels:
[1] = Permeability to anions and degree of encapsulation (dialysis, fluorescence at 522 nm); assay type: physicochemical; conditions: of the initial Oregon Green
Description: Stir at 50° C. for 72 hours.
The solution is made up to 3 mL by adding a solution of CTACl at 1.5 mM in a borate buffer solution at pH=9. The fluorescence emission at 522 nm with excitation at 502 nm is measured with a Varian Cary Eclipse fluorescence spectrometer for all the solutions prepared from each of the samples taken. The concentration of Oregon Green in each sample is proportional to the fluorescence emission to within an arbitrary factor that is not important for the measurement.
(FIG. 11). […] The ratio of the fluorescence measured from the initial solution to the fluorescence extrapolated to t=0 makes it possible to measure the degree of encapsulation. 60% of the initial Oregon Green is therefore encapsulated.

[2] = Confocal microscopy of solutes with high internal pH vesicles; assay type: physicochemical; conditions: Example 11 vesicles, waiting time of one minute
Description: The presence of vesicles in the solution is checked by confocal microscopy after adding Rhodamine 6G: take about 100 μL of solution, and add 10 μL of an aqueous solution of Rhodamine 6G at 10 μM. Observation by confocal microscopy is carried out according to the usual techniques.
The presence of vesicles in the solution is checked by confocal microscopy by adding Rhodamine 6G as described above.

[3] = Confocal microscopy of solutes with low internal pH vesicles; assay type: physicochemical; conditions: for localisation of solute encapsulated during preparation: confocal microscopy after 7 days of dialysis; for waiting time before the vesicles absorb the solute spontaneously: vesicles prepared without addition of solute
Description: Optionally, solute to be encapsulated can be added. If the vesicles were prepared without addition of solute in the preceding stages, they are then able to absorb certain compounds present in solution, for example Rhodamine B or Rhodamine 6G. It is sufficient to add the solute and wait about ten minutes before the vesicles absorb the solute spontaneously.
The presence of vesicles in the solution is checked by confocal microscopy after labelling with Oregon Green 488: take about 100 mg of solution, and add 20 μL of a saturated aqueous solution of Oregon Green 488, diluted 10-fold. Observation by confocal microscopy is carried out according to the usual techniques. An image of the vesicles is obtained, with the positive walls marked with the negative stain (FIG. 2). The vesicles are well separated.
The presence of vesicles in the solution and encapsulation of Rhodamine 6G is checked by confocal microscopy according to the usual techniques. […] The same observation can be carried out after labelling with Oregon Green 488: to 20 μL of solution, add 10 μL of a saturated aqueous solution of Oregon Green 488, diluted 10-fold.
After 7 days of dialysis, withdraw the solution from the cassette using a syringe and store it at room temperature.
After 20 minutes, zones with high concentration of Rhodamine 6G are observed by confocal microscopy (FIG. 14).

Structure (SMILES)	degree of encapsulation [1] [%]	spontaneous encapsulation of solute added after dialysis [2]	penetration of stain added after dialysis ([3]; Example 2 vesicles, excess of negative stain)	concentration in the vesicles extrapolated to t=0 (initial concentration in the solution 1.5 mM) [µM]	permeability of the vesicles to Rhodamine 6G (not told)	degree of encapsulation (of the initial Rhodamine 6G) [%]	spontaneous encapsulation of solute added after dialysis ([3]; Example 12 vesicles, after 20 minutes)	localisation of solute encapsulated during preparation [3]	waiting time before the vesicles absorb the solute spontaneously [3]
O=C(O)c1ccccc1-c1c2cc(F)c(=O)cc-2oc2cc(O)c(F)cc12 [Oregon Green]	60	spontaneous encapsulation	does not penetrate into the vesicles						
CC/N=c1\cc2oc3cc(NCC)c(C)cc3c(-c3ccccc3C(=O)OCC)c-2cc1C.Cl [Rhodamine 6G, Chloride of Rhodamine 6G]				500	8.1 10^−12 cm/s	30	accumulated preferentially	present inside the vesicles, and exclusively inside	about ten
CCN(CC)c1ccc2c(-c3ccccc3C(=O)O)c3ccc(=[N+](CC)CC)cc-3oc2c1.[Cl-] [Rhodamine B, Chloride of Rhodamine B]								exclusively encapsulated inside the vesicles, not outside	about ten
